Calls of active or inactive are those of the source.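 The calls were made as follows: active = Compounds that kill half the cells at a concentration of 5 micromolar or below, from the fitted or estimated CC50; inactive = CC50 above 5 micromolar.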
Test system: Jurkat E6.1 viability, ATP luminescence, 48 h
Assay: Jurkat E6.1 cell cytotoxicity, CC50 determination, dose response, cytotoxicity control, ATP luminescence, 48 h, 60K MLSMR (AID 464)

In the case of `CCOC(=O)c1[nH]c(C)c(C(=O)Nc2ccc(C)c(F)c2)c1C`, the CC50 is reported as 7.19 µM (inactive).

`Cc1ccnc(SCC(=O)Nc2sc3c(c2C#N)CCCC3)n1` was tested, and the CC50 was > 40 µM (inactive).

Molecule `CCOc1ccc(N(CC)S(=O)(=O)c2ccc3c(c2)oc(=O)n3C)cc1` has a CC50 of 2.94 µM.

In the case of `O=c1cc(Nc2ccc3c(c2)OCCO3)[nH]c(=O)n1C1CCCCC1`, the CC50 is reported as 11.7 µM (inactive).

For `COc1cc(C2Nc3ccc4ncccc4c3C3=C2C(=O)CCC3)ccc1O` (stereo not given), the CC50 was 2.5 µM.

With `O=C(c1ccc2c(c1)ncn2C1CCCCC1)N1CCC2(CC1)OCCO2` the CC50 was 5.19 µM (inactive).

`COc1ccc(N(CC(=O)Nc2cc(Cl)ccc2OC)S(=O)(=O)c2c(C)noc2C)cc1` was tested, and the CC50 was 2.97 µM.

`Cc1nc(C)c2c(=O)cc(-c3ccccc3)[nH]c2n1` was tested, and the CC50 was 4.05 µM.

With `C/C(N)=C(/C#N)C(=O)CSc1nnnn1-c1ccc(C)cc1C` the CC50 was > 40 µM (inactive).

Work on `COc1ccc(CCNc2nnc(Sc3nnnn3-c3ccccc3)s2)cc1OC` yielded a CC50 of 0.875 µM.

In the case of `O=c1oc2ccccc2cc1NCc1ccccc1O`, the CC50 is reported as > 40 µM (inactive).

In the case of `O=C(Nc1ccccc1)N1CCC(c2nc(-c3ccc(S(=O)(=O)N4CCOCC4)cc3)no2)CC1`, the CC50 is reported as > 40 µM (inactive).

For `Cc1ccc(C)c(N2CCN(C(=O)c3ccc(CS(=O)(=O)c4ccccc4C)o3)CC2)c1`, the CC50 was 14.2 µM (inactive).

For `O=C(Nc1nc(-c2ccc3c(c2)OCCO3)cs1)c1ccc(S(=O)(=O)N2CCCCC2)cc1`, the CC50 was 8.3 µM (inactive).

For `C=CCn1c(O)c(C(C)=NCc2cc(OC)cc(OC)c2)c(=O)[nH]c1=O`, the CC50 was 7.66 µM (inactive).

With `COc1ccc(NC(=O)c2cnc(C)cn2)c2ncccc12` the CC50 was 5.63 µM (inactive).

With `Cc1nc(CNS(=O)(=O)c2ccc(Oc3ccccc3)cc2)cs1` the CC50 was 10.6 µM (inactive).

With `COc1cc(C(=O)N2CCN(c3ccc(C)cc3C)CC2)cc(OC)c1OC` the CC50 was 1.69 µM.

`CCc1nnc(NC(=O)c2ccc(S(=O)(=O)N(CC(C)C)CC(C)C)cc2)o1` was tested, and the CC50 was 29.8 µM (inactive).

For `CCCc1cc(C(=O)Nc2cc(Br)ccc2O)no1`, the CC50 was > 40 µM (inactive).

In the case of `CNc1nc2c(c(=O)n(C)c(=O)n2C)n1Cc1ccccc1`, the CC50 is reported as 7.54 µM (inactive).

`COc1ccc(NS(=O)(=O)c2ccc(NC(C)=O)cc2)cc1OC` was tested, and the CC50 was 17.7 µM (inactive).

`O=C(NCc1ccccc1)c1noc2c1CCCC2` was tested, and the CC50 was 8.77 µM (inactive).

In the case of `CCOc1cc(N2CCOCC2)c(OCC)cc1NC(=O)COc1cccc2cccnc12`, the CC50 is reported as 9.13 µM (inactive).

In the case of `CCOC(=O)c1nc(S(C)(=O)=O)ncc1Cl`, the CC50 is reported as 4.66 µM.

For `COc1ccc(C)cc1Nc1cc(C)nc2nc(C)nn12`, the CC50 was 7.08 µM (inactive).

In the case of `Cc1onc(-c2ccccc2)c1C(=O)Nc1sc2c(c1C#N)CCC2`, the CC50 is reported as 15 µM (inactive).

In the case of `COc1ccc(-n2nnnc2-c2cccc(OC)c2)cc1`, the CC50 is reported as 0.195 µM.

`Clc1ccc(OCCN2CCN(c3ncnc4sccc34)CC2)cc1` showed a CC50 of 0.938 µM.

With `CCN(CC)S(=O)(=O)c1cc(C(=O)Nc2ccncc2)ccc1Cl` the CC50 was 8.55 µM (inactive).

`COc1ccc(Nc2nc(N3CCCC3)nc3ccccc23)c(OC)c1` was tested, and the CC50 was 21.9 µM (inactive).

`COc1cc(C)c(Cl)cc1S(=O)(=O)NCc1ccncc1` showed a CC50 of 3.1 µM.

`Cc1c(C(=O)OC2CCCC2)[nH]c2c1C(=O)CC(c1ccco1)C2` (stereo not given) showed a CC50 of 0.167 µM.

`CCCCn1c2c(c(=N)c3c1CCC3)CCC2` gave a CC50 of 3.9 µM.

For `COc1ccc(CNC(=O)c2cc3c(C)nc4ccccc4c3o2)c(OC)c1`, the CC50 was > 40 µM (inactive).

For `Cc1cc(Cl)ccc1OCCCC(=O)NO`, the CC50 was 8.2 µM (inactive).

In the case of `CCOC(=O)CSC1=C(C#N)C(c2sccc2C)CC(=O)N1` (stereo not given), the CC50 is reported as 1.91 µM.

In the case of `COc1ccccc1-c1nnc2sc(-c3cc4ccccc4o3)nn12`, the CC50 is reported as 0.214 µM.

`Cc1ccc(Nc2cc(C)nn2-c2nc(C)cc(=O)[nH]2)cc1` was tested, and the CC50 was 1.31 µM.

In the case of `CN1/C(=C/C(=O)c2nc(S(C)(=O)=O)ncc2Cl)C(C)(C)c2ccccc21`, the CC50 is reported as > 13 µM (inactive).

In the case of `O=c1c2[nH]c3ccc(F)cc3c2ncn1CCCn1ccnc1`, the CC50 is reported as 17.1 µM (inactive).

`O=C(CSc1ncnc2sc3c(c12)CCCCC3)NCc1ccco1` was tested, and the CC50 was 9.83 µM (inactive).

For `CCc1ccc2nc(NC(=O)c3cc(C)on3)sc2c1`, the CC50 was 3.71 µM.

Work on `Cc1ccc2[nH]c(-c3ccccc3)cc(=O)c2c1` yielded a CC50 of 0.324 µM.

For `CCOC(=O)c1c(C)c(C(=O)Nc2cc(OC)ccc2OC)c(C)n1CC`, the CC50 was 11.4 µM (inactive).

`CC1CCCCC1NS(=O)(=O)c1ccc(S(=O)(=O)NCc2ccncc2)cc1` (stereo not given) gave a CC50 of 2.37 µM.

`O=C1CCCN1c1ccc(S(=O)(=O)Nc2ccc3c(c2)OCCO3)cc1` was tested, and the CC50 was 1.78 µM.

For `Cc1noc(C)c1CSc1nc2ccccc2nc1NS(=O)(=O)c1ccc(Cl)cc1`, the CC50 was 31.5 µM (inactive).

For `Cc1[nH]c2c(C(F)(F)F)cccc2c1CCN`, the CC50 was 10.4 µM (inactive).

With `CCOC(=O)N1CCN(c2c(F)cc3[nH]c(=S)[nH]c3c2Br)CC1` the CC50 was > 4.4 µM (inactive).

`Cc1cc(C)nc(SCC(=O)Nc2ccc(N3CCOCC3)c(Cl)c2)n1` was tested, and the CC50 was 5.6 µM (inactive).

Work on `COC(=O)Nc1ccc(S(=O)(=O)N2CCCc3ccccc32)cc1` yielded a CC50 of 1.06 µM.

With `O=C(Nc1nnc(-c2cccs2)o1)c1cccc(C(F)(F)F)c1` the CC50 was 25.7 µM (inactive).

For `COc1ccc(NS(=O)(=O)c2cc(C)ccc2C)cc1`, the CC50 was 5.18 µM (inactive).

`Cn1nc(CC(=O)Nc2ccc3c(c2)OCCO3)c2ccccc2c1=O` was tested, and the CC50 was 0.96 µM.

In the case of `O=C(c1ccccc1-c1ccccc1)N1CCN(c2ccccn2)CC1`, the CC50 is reported as 1.55 µM.

Molecule `COc1ccc(C2=Nn3c(nnc3-c3ccccc3OC)SC2)cc1OC` has a CC50 of 0.116 µM.

With `CCOC(=O)C1(Nc2nccs2)Sc2ccccc2NC1=O` (stereo not given) the CC50 was 3.66 µM.

`CC(C)Oc1ccccc1C1CC(=O)Nc2cc3c(cc21)OCO3` (stereo not given) was tested, and the CC50 was 0.812 µM.

With `CCn1ncc(C2=NOC(C(=O)NCc3ccc(OC)cc3)C2)c1C` (stereo not given) the CC50 was 11.8 µM (inactive).

`Oc1ccccc1-c1nnc(SCCN2CCOCC2)n1Cc1ccccc1` gave a CC50 of 1.7 µM.

With `Nc1nnnn1/N=C/C(Br)=C/c1ccccc1` the CC50 was > 13 µM (inactive).

With `Cn1c(=O)c2c(nc(NCCO)n2CCc2ccccc2)n(C)c1=O` the CC50 was 9.41 µM (inactive).

Work on `Cc1cc(=O)oc2cc(OCC(=O)N3c4ccccc4CC3C)ccc12` (stereo not given) yielded a CC50 of 0.756 µM.

`CCOc1cccc(-n2nnnc2-c2ccc(OC)cc2)c1` showed a CC50 of 1.06 µM.

For `Cc1cccc(OCC(=O)Nc2cc(C)ccc2O)c1`, the CC50 was 5.78 µM (inactive).

In the case of `Cc1ccc2c(c1)[nH]c1c(N3CCN(Cc4ccccc4)CC3)ncnc12`, the CC50 is reported as > 40 µM (inactive).

`Cc1ccc(S(=O)(=O)Nc2cccc3ncccc23)s1` was tested, and the CC50 was 10.3 µM (inactive).

`CCOC(=O)CSC1=C(C#N)C(c2ccc(C)s2)CC(=O)N1` (stereo not given) showed a CC50 of 1.56 µM.

In the case of `CC(=O)N1c2ccccc2N(Cc2ccc(C)cc2C)C(=O)C1(C)C`, the CC50 is reported as 2.22 µM.

In the case of `CCCCOc1ncnc2c1[nH]c1ccc(F)cc12`, the CC50 is reported as > 40 µM (inactive).

`COc1ccc(Cn2c(=O)oc3ccc(C)cc32)cc1OC` was tested, and the CC50 was 13.1 µM (inactive).

In the case of `C=CCN(C(=O)c1ccccc1)c1ccc(OC)cc1`, the CC50 is reported as 9.5 µM (inactive).

With `CCOc1ccccc1NC(=O)c1cccc(NC(=O)c2ccco2)c1` the CC50 was 1.27 µM.

`CCC(=NC(C)c1ccccc1)c1c(O)n(C)c(=O)n(C)c1=O` (stereo not given) was tested, and the CC50 was 11.3 µM (inactive).

Work on `COC(=O)C1=C(N)Oc2cc(N(C)C)ccc2C1c1ccccc1OC` (stereo not given) yielded a CC50 of 2.6 µM.

With `CCOc1ccccc1NC(=O)CN(c1ccc(OC)cc1)S(=O)(=O)c1c(C)noc1C` the CC50 was 1.37 µM.

`CN(CC1CCCO1)S(=O)(=O)c1ccc(C(=O)Nc2nc(-c3ccccn3)cs2)cc1` (stereo not given) was tested, and the CC50 was 10.5 µM (inactive).

For `COCCOC(=O)c1[nH]c2c(c1C)C(=O)CC(c1cc(OC)ccc1OC)C2` (stereo not given), the CC50 was 4.2 µM.

For `CCOC(=O)c1oc2ccc(S(=O)(=O)Nc3ccc4c(c3)n(C)c(=O)n4C)cc2c1C`, the CC50 was 11.3 µM (inactive).

From PubChem BioAssay AID464 (The Scripps Research Institute Molecular Screening Center, 2006)
